Assay [1] deals with T1, human PPAR γ 2 (Homo sapiens, UniProt P37231).
T1 construct: expressed in transfected cells; host or cells: human osteosarcoma MG63, transiently co-transfected with pSG5-hPPARg and the reporter pGV-P2-PPRE
T1 sequence (P37231 1-505): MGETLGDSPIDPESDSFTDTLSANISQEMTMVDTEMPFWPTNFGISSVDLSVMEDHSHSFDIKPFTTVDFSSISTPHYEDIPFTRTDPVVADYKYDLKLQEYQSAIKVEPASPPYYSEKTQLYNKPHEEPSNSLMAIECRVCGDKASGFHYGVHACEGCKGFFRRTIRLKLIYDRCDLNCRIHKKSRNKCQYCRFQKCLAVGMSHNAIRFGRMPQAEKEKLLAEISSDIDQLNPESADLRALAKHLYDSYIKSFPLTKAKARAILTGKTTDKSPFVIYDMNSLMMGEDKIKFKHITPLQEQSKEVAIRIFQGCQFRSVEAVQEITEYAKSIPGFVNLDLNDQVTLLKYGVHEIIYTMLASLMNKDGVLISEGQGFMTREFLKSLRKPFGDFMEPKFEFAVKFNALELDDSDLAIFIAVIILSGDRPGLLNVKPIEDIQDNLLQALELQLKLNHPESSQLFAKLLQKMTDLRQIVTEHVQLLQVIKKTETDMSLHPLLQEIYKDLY
Kind of assay: PPAR γ transcriptional activity, luciferase reporter, test compound alone. It counts as cell-based. To be noted: concentration indicating Emax/2, MG63 cells transfected with pSG5-hPPARg and pGV-P2-PPRE, 24 hr. How it is done:
The primers of the polymerase chain reaction (hereinafter “PCR”) were designed according to the gene sequence of human PPAR γ 2 (GenBANK accession No. D83233). In order to insert the genes into the BamHI site of the plasmid pSG5 ([…] CLONING SYSTEMS), Bgl II sites were added upstream and downstream of the genes encoding human PPAR γ 2 protein. For this, 2 kinds of polynucleotides shown in the sequence numbers 1 and 2 in the sequence table described below (hereinafter “S1” and “AS1”, respectively) were used as PCR primers.
In order to determine transcriptional activity via PPAR γ, 2 kinds of polynucleotides represented in sequence numbers 3 and 4 in the sequence table described below (hereinafter “S2” and “AS2”, respectively) were used for construction of the reporter plasmid having PPAR responsive element. The DNA fragment inserted was designed based on the gene sequence in the promoter region of rat acylCo-A oxidase (J. D. Tugwood, EMBO J., 11 (2), pp433-439 (1992)). For insertion of the DNA fragment into the reporter plasmid pGV-P2 (TOYO INK MFG CO., LTD), a NheI site and an XhoI site were added to the S2 and AS2, respectively.
Using cDNA library (Clontech) derived from human adipose tissue as a template, DNA oligomers S1 and AS1 that were synthesized in the procedure 1 as primers and Ex-Taq™ (TAKARA BIO INC.) as a thermostable DNA polymerase-PCR was carried out. As a result of the PCR, the c.a. 1500 bps DNA fragments were amplified. Each cycle consisted of incubation at 94° C. for 1 min for denaturation of the template, then at 55° C. for 30 sec for annealing of DNA oligomers the PCR primer, and then at 72° C. for 30 sec for extension of the chain. The obtained DNA fragments with approximately 1500 base pairs were digested at the Bgl II sites and were inserted into BamHI sites of pSG5. Thus a human PPAR γ expression plasmid named pSG5-hPPAR g was obtained. The nucleotide sequence of the inserted DNA fragment was confirmed to be identical sequence to the human PPAR γ 2 reported by the dideoxy method.
Vector pGV-P2 digestion products was prepared by digestion using the restriction enzymes, NheI and XhoI, and purified by 1.0% agarose-gel electrophoresis. The DNA oligomers, S2 and AS2 obtained in Procedure 2, were mixed together and were incubated in a hot bath at 94° C. for 1 min. After the annealing was partially broken, they were further incubated at 25° C. for 1 hr. Thus double-stranded DNA with annealing of S2 and AS2 was formed. Then, the terminus of the double-stranded DNA with annealing of S2 and AS2 was phosphorylated with DNA polynucleotide kinase (TOYOBO CO., LTD). After that, it was ligated to the pGV-P2 digestion products which were prepared previously using the NheI site and XhoI site. Thus the reporter plasmid pGV-P2-PPRE was obtained.
Using the plasmid obtained by the procedures 3 and 4, transformation of Escherichia coli HB-101 strain was carried out by conventional methods. HB-101 strain having the plasmid was incubated in L-broth medium (containing 10 g of trypton (Difco), 5 g of yeast extract (Difco), 5 g of sodium chloride in 1 L of aqueous solution) containing 100 μg/ml of ampicillin at 37° C. for 17 hrs. Then, each plasmid was purified by the alkaline-SDS method and employed for the gene transfection to mammalian cells. After mixing the pSG5-hPPARg, PGV-P2-PPRE and LipofectAMINE reagent (GIBCO BRL), the human osteosarcoma MG63 was transiently transfected. Then the cells were recovered. The recovered cells were plated on a 96-well plate so as to be 30,000 cells/well and cultured in a CO2 incubator (NAPCO) at 37° C. for 24 hr under the condition of 5% CO2, 95%-RH.
Various concentrations of the test compound alone were added to culturing medium of the cells prepared in the Procedure 5. After 24 hr of culturing, LT2.0 (TOYO INK MFG CO., LTD), a luciferase substrate, was added to the medium free culture plate. […]
(Reporter assays use an easily measured gene product as a stand-in for the process of interest.)

In assay [2] the target is T1, human PPAR γ 2. In words: Inhibitory activity against PPAR γ transcription in the presence of agonist compound A, luciferase reporter. Format: cell-based. To be noted: in the presence of 10 nM compound A (agonist); MG63 cells transfected with pSG5-hPPARg and pGV-P2-PPRE; 24 hr.

The structures appear in SMILES notation. Counter-ions that a name gives are not always drawn.

`Cc1ccc(NC(=O)c2cc([N+](=O)[O-])ccc2Cl)cc1` [Example 1, N-(4-Methylphenyl)-(2-chloro-5-nitrophenyl)carboxamide] registered an EC50 at human PPAR γ 2 [1] of 0.22 µM. Also, at human PPAR γ 2 [2], the IC50 was determined as 0.033 µM.

On to `O=C(Nc1ccc(-c2ccccc2)cc1)c1cc([N+](=O)[O-])ccc1Cl` [Example 2, N-(4-Phenylphenyl)-(2-chloro-5-nitrophenyl)carboxamide], for which, on human PPAR γ 2 [1], the EC50 amounted to 0.84 µM. Moreover, the IC50 at human PPAR γ 2 [2] was found to be 0.0019 µM.

In turn, `Cc1cnc(NC(=O)c2cc([N+](=O)[O-])ccc2Cl)s1` [Example 4, N-(5-Methylthiazol-2-yl)-(2-chloro-5-nitrophenyl)carboxamide] came in with an EC50 on human PPAR γ 2 [1] of 0.015 µM. Further, the IC50 at human PPAR γ 2 [2] is 0.12 µM.

With `O=C(Nc1cccc(-c2ccccc2)c1)c1cc([N+](=O)[O-])ccc1Cl` [Example 5, N-(3-Phenylphenyl)-(2-chloro-5-nitrophenyl)carboxamide], on human PPAR γ 2 [1], the EC50 turned out to be 0.4 µM. For the same molecule, at human PPAR γ 2 [2], the IC50 was 0.082 µM.

`COc1ccc(NC(=O)c2cc([N+](=O)[O-])ccc2Cl)cc1-c1ccccc1` [Example 6, N-(4-Methoxy-3-phenyl)phenyl-(2-chloro-5-nitrophenyl)carboxamide] gave an EC50 on human PPAR γ 2 [1] of 0.034 µM. Also, on human PPAR γ 2 [2], the IC50 was determined as 0.16 µM.

On to `O=C(Nc1ccccc1-c1ccccc1)c1cc([N+](=O)[O-])ccc1Cl` [Example 7, N-(2-Phenylphenyl)-(2-chloro-5-nitrophenyl)carboxamide], for which the concentration for a half-maximal effect (EC50) on human PPAR γ 2 [1] was 0.27 µM.

On human PPAR γ 2 [1], `O=C(Nc1ccc(-c2ccccn2)cc1)c1cc([N+](=O)[O-])ccc1Cl` [Example 8, N-[4-(2-Pyridyl)phenyl]-(2-chloro-5-nitrophenyl)carboxamide] displayed an EC50 of 0.26 µM. For the same molecule, at human PPAR γ 2 [2], the IC50 is 0.0059 µM.

`CCCCCc1ccc(NC(=O)c2cc([N+](=O)[O-])ccc2Cl)cc1` [Example 16, N-(4-Pentylphenyl)-(2-chloro-5-nitrophenyl)carboxamide] yielded an EC50 on human PPAR γ 2 [1] of 0.034 µM. Besides, the IC50 on human PPAR γ 2 [2] was 0.0075 µM.

Consider `CCOC(=O)c1ccc(NC(=O)c2cc([N+](=O)[O-])ccc2Cl)cc1` [Example 26, N-(4-Ethoxycarbonylphenyl)-(2-chloro-5-nitrophenyl)carboxamide], for which the EC50 at human PPAR γ 2 [1] came to 0.0021 µM. The IC50 on human PPAR γ 2 [2] was 0.0063 µM.

As to `CC(C)(C)c1cc(NC(=O)c2cc([N+](=O)[O-])ccc2Cl)cc(C(C)(C)C)c1O` [Example 29, N-(3,5-Di-t-butyl-4-hydroxyphenyl)-(2-chloro-5-nitrophenyl)carboxamide], at human PPAR γ 2 [1], the EC50 amounted to 0.0044 µM. For the same molecule, the IC50 at human PPAR γ 2 [2] stood at 0.23 µM.

In the case of `O=C(Nc1cccc(NS(=O)(=O)c2ccccc2)c1)c1cc([N+](=O)[O-])ccc1Cl` [Example 30, N-(3-Benzensulfonylaminophenyl)-(2-chloro-5-nitrophenyl)carboxamide], at human PPAR γ 2 [1], the EC50 stood at 0.0019 µM. Also, the IC50 on human PPAR γ 2 [2] came out at 0.012 µM.

For `O=C(Nc1nc(-c2ccccc2)cs1)c1cc([N+](=O)[O-])ccc1Cl` [Example 35, N-(4-Phenylthiazol-2-yl)-(2-chloro-5-nitrophenyl)carboxamide], the EC50 at human PPAR γ 2 [1] stood at 0.025 µM. For the same molecule, the IC50 at human PPAR γ 2 [2] stood at 0.03 µM.

As to `O=C(Nc1nc(-c2cccnc2)cs1)c1cc([N+](=O)[O-])ccc1Cl` [Example 37, N-[4-(3-Pyridyl)thiazol-2-yl)-(2-chloro-5-nitrophenyl)carboxamide], a half-maximal effect on human PPAR γ 2 [1] (EC50) was put at 0.51 µM. In addition, the IC50 at human PPAR γ 2 [2] amounted to 0.015 µM.

On to `O=C(Nc1nc(-c2ccccn2)cs1)c1cc([N+](=O)[O-])ccc1Cl` [Example 38, N-[4-(2-Pyridyl)thiazol-2-yl)-(2-chloro-5-nitrophenyl)carboxamide], for which a half-maximal response on human PPAR γ 2 [1] (EC50) required 0.25 µM. The half-inhibitory concentration (IC50) on human PPAR γ 2 [2] came to 0.045 µM.

Take `Cc1ccccc1-c1csc(NC(=O)c2cc([N+](=O)[O-])ccc2Cl)n1` [Example 39, N-[4-(2-Methylphenyl)thiazol-2-yl]-(2-chloro-5-nitrophenyl)carboxamide]: at human PPAR γ 2 [1], the EC50 is 0.039 µM. Also, the IC50 at human PPAR γ 2 [2] is 0.04 µM.

`O=C(Nc1nc(-c2cccc3ccccc23)cs1)c1cc([N+](=O)[O-])ccc1Cl` [Example 41, N-[4-(1-Naphthyl)thiazol-2-yl]-(2-chloro-5-nitrophenyl)carboxamide] displayed an EC50 at human PPAR γ 2 [1] of 0.011 µM. Moreover, on human PPAR γ 2 [2], the IC50 turned out to be 0.077 µM.

Take `Cc1ccc(-c2nc(NC(=O)c3cc([N+](=O)[O-])ccc3Cl)sc2C)cc1Cl` [Example 46, N-[4-(3-Chloro-4-methylphenyl)-5-methylthiazol-2-yl]-(2-chloro-5-nitrophenyl)carboxamide]: on human PPAR γ 2 [1], the EC50 stood at 0.81 µM. Further, the IC50 at human PPAR γ 2 [2] turned out to be 0.054 µM.

Take `Cc1nc(NC(=O)c2cc([N+](=O)[O-])ccc2Cl)sc1C` [Example 47]: at human PPAR γ 2 [1], the EC50 turned out to be 0.42 µM. Further, the IC50 at human PPAR γ 2 [2] was found to be 0.038 µM.

With `Cc1cccc(NC(=O)c2cc([N+](=O)[O-])ccc2Cl)n1` [Example 51, N-(6-Methylpyridin-2-yl)-(2-chloro-5-nitrophenyl)carboxamide], at human PPAR γ 2 [1], a half-maximal effect (EC50) was put at 0.0066 µM. The IC50 on human PPAR γ 2 [2] came to 0.12 µM.

The molecule `Cc1ccc(NC(=O)c2cc([N+](=O)[O-])ccc2Cl)nc1` [Example 52, N-(5-Methylpyridin-2-yl)-(2-chloro-5-nitrophenyl)carboxamide] displayed a 50% effective concentration (EC50) on human PPAR γ 2 [1] of 0.0056 µM. Moreover, the IC50 on human PPAR γ 2 [2] stood at 0.21 µM.

`O=C(Nc1ccc2c3c(cccc13)CC2)c1cc([N+](=O)[O-])ccc1Cl` [Example 54, N-(Acenaphthen-5-yl)-(2-chloro-5-nitrophenyl)carboxamide] displayed an EC50 on human PPAR γ 2 [1] of 0.0047 µM. Also, the IC50 at human PPAR γ 2 [2] is 0.34 µM.

Take `O=C(Nc1cccc2cccnc12)c1cc([N+](=O)[O-])ccc1Cl` [Example 57, N-(8-Quinolinyl)-(2-chloro-5-nitrophenyl)carboxamide]: a half-maximal response at human PPAR γ 2 [1] (EC50) required 0.26 µM.

In turn, `Nc1ccc(NC(=O)c2cc([N+](=O)[O-])ccc2Cl)cc1` [Example 58, N-(4-Aminophenyl)-(2-chloro-5-nitrophenyl)carboxamide mono-hydrochloride] registered an EC50 at human PPAR γ 2 [1] of 0.02 µM. The IC50 on human PPAR γ 2 [2] was found to be 0.0028 µM.

Regarding `COC(=O)c1sccc1NC(=O)c1cc([N+](=O)[O-])ccc1Cl` [Example 66, N-(2-Methoxycarbonylthiophen-3-yl)-(2-chloro-5-nitrophenyl)carboxamide], the response at human PPAR γ 2 [1] was half-maximal at 0.12 µM (EC50).

Consider `O=C(Nc1c(Cl)ncnc1Cl)c1cc([N+](=O)[O-])ccc1Cl` [Example 81, N-(4,6-Dichloropyrimidin-5-yl)-(2-chloro-5-nitrophenyl)carboxamide], for which, on human PPAR γ 2 [1], the response was half-maximal at 0.76 µM (EC50). Moreover, at human PPAR γ 2 [2], the IC50 is 0.023 µM.

What is called EC50 is the concentration giving half of the maximal effect. Low values mean a more potent agent, high ones a less potent agent. As a reminder, the IC50 is the concentration needed to halve the response being measured.
